Columns and labels:
Format in all cases: functional
Conditions in all cases: read-out: GI
BGC-823 = experiment: Antitumor activity against human BGC823 cells assessed as growth inhibition at 10 uM by SRB method
Bel-7402 = experiment: Antitumor activity against human Bel7402 cells assessed as growth inhibition at 10 uM by SRB method
KB = experiment: Antitumor activity against human KB cells assessed as growth inhibition at 10 uM by SRB method
Phytophthora capsici = experiment: Antifungal activity against Phytophthora capsici assessed as growth inhibition at 500 ug/mL by potted plant test
Fusarium oxysporum = experiment: Antifungal activity against Fusarium oxysporum assessed as growth inhibition at 500 ug/mL by potted plant test
Corynespora cassiicola = experiment: Antifungal activity against Corynespora cassiicola assessed as growth inhibition at 500 ug/mL by potted plant test
Rhizoctonia solani = experiment: Antifungal activity against Rhizoctonia solani assessed as growth inhibition at 500 ug/mL by potted plant test

| SMILES | inhibition of growth at 10 µM (BGC-823) [%] | inhibition of growth at 10 µM (Bel-7402) [%] | inhibition of growth at 10 µM (KB) [%] | inhibition of growth at 500 µg/mL (Phytophthora capsici) [%] | inhibition of growth at 500 µg/mL (Fusarium oxysporum) [%] | inhibition of growth at 500 µg/mL (Corynespora cassiicola) [%] | inhibition of growth at 500 µg/mL (Rhizoctonia solani) [%] |
| --- | --- | --- | --- | --- | --- | --- | --- |
| COc1ccccc1C(=O)N/N=C/c1ccc(-c2ccc(F)cc2F)o1 | 35.9 | 1.69 | 10.1 | 20.9 | 9 | 38.5 | 2 |
| O=C(N/N=C/c1ccc(-c2ccc(F)cc2F)o1)c1ccccc1O | 68.4 | 63.4 | 61.8 | 52.8 | 8 | 27.7 | 16.1 |
| O=C(N/N=C/c1ccc(-c2ccc(F)cc2F)o1)c1ccccc1S[C@@H]1O[C@H](CO)[C@@H](O)[C@H](O)[C@H]1O | 18.4 | -0.67 | -0.3 | 88.5 | 45.2 | 53.7 | 45.5 |
| O=C(N/N=C/c1ccc(-c2ccc(F)cc2F)o1)c1ccccc1O[C@@H]1O[C@H](CO)[C@@H](O)[C@H](O)[C@H]1O | 6.66 | -5.7 | 18.2 | 85.5 | 0 | 50.8 | 45.3 |
| O=C(N/N=C/c1ccc(-c2ccc(F)cc2F)o1)c1ccccc1S[C@@H]1O[C@H](CO)[C@H](O)[C@H](O)[C@H]1O | 16.1 | 27.2 | 10.7 | 88.4 | 64.5 | 39.4 | 24.9 |
| O=C(N/N=C/c1ccc(-c2ccccc2Cl)o1)c1ccccc1S[C@@H]1O[C@H](CO)[C@@H](O)[C@H](O)[C@H]1O | 6.21 | 2.09 | 24.3 | 90 | 8.06 | 41.9 | 34.4 |
| O=C(N/N=C/c1ccc(-c2ccccc2Cl)o1)c1ccccc1O[C@@H]1O[C@H](CO)[C@@H](O)[C@H](O)[C@H]1O | 1.88 | -10.3 | 9.11 | 90 | 64.5 | 49.3 | 33.3 |
| O=C(N/N=C/c1ccc(-c2ccc(F)cc2F)o1)c1ccccc1S[C@@H]1O[C@H](CO)[C@@H](O[C@@H]2O[C@H](CO)[C@H](O)[C@H](O)[C@H]2O)[C@H](O)[C@H]1O | -2.72 | -10.6 | 39.4 | 30 | 74.2 | 45.6 | 10.7 |
| O=C(N/N=C/c1ccc(-c2ccccc2Cl)o1)c1ccccc1S[C@@H]1O[C@H](CO)[C@@H](O[C@@H]2O[C@H](CO)[C@H](O)[C@H](O)[C@H]2O)[C@H](O)[C@H]1O | 1.91 | 8.3 | -4.67 | 44.4 | 40.3 | 41.6 | 43.5 |
| N#Cc1c(Cl)c(Cl)c(Cl)c(C#N)c1Cl [CHLOROTHALONIL] |  |  |  |  |  | 83.9 |  |
| COc1cccc2c1C(=O)c1c(O)c3c(c(O)c1C2=O)C[C@@](O)(C(=O)CO)C[C@@H]3O[C@H]1C[C@H](N)[C@H](O)[C@H](C)O1 [DOXORUBICIN] | 51.2 | 6.53 | 45.1 |  |  |  |  |
| CC12CC1(C)C(=O)N(c1cc(Cl)cc(Cl)c1)C2=O (stereo not given) [PROCYMIDONE] |  |  |  | 93.2 |  |  |  |
| COC(=O)NC(=S)Nc1ccccc1NC(=S)NC(=O)OC [THIOPHANATE METHYL] |  |  |  |  | 64.5 |  |  |
| OCC1=C[C@H](N[C@H]2C[C@H](CO)[C@@H](O[C@@H]3O[C@H](CO)[C@@H](O)[C@H](O)[C@H]3O)[C@H](O)[C@H]2O)[C@H](O)[C@@H](O)[C@@H]1O [VALIDAMYCIN] |  |  |  |  |  |  | 81 |

Reference: ChEMBL document CHEMBL1921686, “Molecular design, synthesis and bioactivity of glycosyl hydrazine and hydrazone derivatives: notable effects of the sugar moiety” (2011)
